Reference: publication PMC11365428 (The Journal of Biological Chemistry, 2024)
No end group written: not given here.

Legend:
apTKRPR-A = molecular target: T1, apTKRPR-A (Aplysia californica, UniProt A0AAU7SSZ1); experiment: IP1 accumulation assay, CHO-K1 cells transiently expressing apTKRPR-A; assay type: cell-based; conditions: for IP1 response of apTKRPR-A in screening: 10^-5 M compared with 10^-10 M (control), no Gαq cotransfection
T1 sequence (A0AAU7SSZ1 1-398): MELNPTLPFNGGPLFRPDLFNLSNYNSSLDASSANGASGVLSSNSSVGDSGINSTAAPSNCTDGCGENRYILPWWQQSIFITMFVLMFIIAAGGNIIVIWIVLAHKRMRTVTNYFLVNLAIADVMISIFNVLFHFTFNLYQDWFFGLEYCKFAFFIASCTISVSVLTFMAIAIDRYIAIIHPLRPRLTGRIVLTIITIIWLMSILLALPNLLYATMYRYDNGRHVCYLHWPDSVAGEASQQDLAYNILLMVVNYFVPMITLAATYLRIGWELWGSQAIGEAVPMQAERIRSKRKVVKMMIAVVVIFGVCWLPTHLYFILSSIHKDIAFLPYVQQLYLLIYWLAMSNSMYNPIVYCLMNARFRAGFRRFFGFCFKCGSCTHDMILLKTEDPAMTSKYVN
Description: (§1) To express putative Aplysia receptors transiently in CHO-K1 cells, the cDNAs were subcloned into the pcDNA3.1(+) or pcDNA3.1(+)-FLAG (for ELISA experiments only, see “Cell surface expression analysis by ELISA” section) expression vector. On the day before transfection, the CHO-K1 cells were passaged into 60 mm diameter tissue culture–treated dishes, and the transfection experiments were performed when the cells were grown to 70 to 90% confluence. CHO-K1 cells were transfected with the cDNA plasmid constructs using Turbofect Transfection reagent (Thermo Fisher Scientific, R0531), following the manufacturer’s instructions. […] The DNA/TurboFect mixture dropwise was then added to the dish, and the cells were incubated at 37 °C in a humidified incubator containing 5% CO2 overnight.
(§2) On the third day, the activation of the putative receptors was detected by monitoring intracellular IP1 concentration using an IP-One Gq kit (Cisbio, 62IPAPEB) in Tecan Spark. Except for using 0.5x reagent, all other procedures were performed following the manufacturer’s instructions. IP1 accumulation assay measures the accumulation of IP1, which is hydrolyzed from the second messenger, and inositol triphosphate. Inositol triphosphate is generated by the Gαq pathway when a GPCR is activated by an appropriate ligand.

apTKRPR-B = molecular target: T2, apTKRPR-B (Aplysia californica, UniProt A0AAU7STS1); experiment: IP1 accumulation assay, CHO-K1 cells transiently expressing apTKRPR-B; assay type: cell-based; conditions: for IP1 response of apTKRPR-B in screening: 10^-5 M compared with 10^-10 M (control), no Gαq cotransfection
T2 sequence (A0AAU7STS1 1-447): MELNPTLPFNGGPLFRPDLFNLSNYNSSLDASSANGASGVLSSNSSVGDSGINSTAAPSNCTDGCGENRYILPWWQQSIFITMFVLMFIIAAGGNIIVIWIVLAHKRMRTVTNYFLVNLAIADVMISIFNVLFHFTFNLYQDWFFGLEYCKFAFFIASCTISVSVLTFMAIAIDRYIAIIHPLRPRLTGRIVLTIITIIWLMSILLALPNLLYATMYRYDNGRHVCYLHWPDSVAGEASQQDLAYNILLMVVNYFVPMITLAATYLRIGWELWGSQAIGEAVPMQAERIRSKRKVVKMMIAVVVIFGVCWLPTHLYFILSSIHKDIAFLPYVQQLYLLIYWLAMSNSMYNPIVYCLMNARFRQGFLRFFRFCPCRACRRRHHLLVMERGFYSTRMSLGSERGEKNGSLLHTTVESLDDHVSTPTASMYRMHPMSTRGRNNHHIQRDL
Description: as §1, §2

[1] = tested on: putative neuropeptide FF receptor (apNPFFR); experiment: IP1 accumulation assay, CHO-K1 cells transiently expressing putative neuropeptide FF receptor; assay type: cell-based, Aplysia californica; conditions: 10^-5 M compared with 10^-10 M (control); n = 3; no Gαq cotransfection
Description: To express putative Aplysia receptors transiently in CHO-K1 cells, the cDNAs were subcloned into the pcDNA3.1(+) or pcDNA3.1(+)-FLAG (for ELISA experiments only, see “Cell surface expression analysis by ELISA” section) expression vector. On the day before transfection, the CHO-K1 cells were passaged into 60 mm diameter tissue culture–treated dishes, and the transfection experiments were performed when the cells were grown to 70 to 90% confluence. CHO-K1 cells were transfected with the cDNA plasmid constructs using Turbofect Transfection reagent (Thermo Fisher Scientific, R0531), following the manufacturer’s instructions. In brief, 4 μg of the putative receptor plasmids [in pcDNA3.1(+) or pcDNA3.1(+)-FLAG] were mixed with 400 μl of Opti-MEM (Gibco, 11058021), followed by the addition of 15 μl of TurboFect Transfection reagent and incubated at room temperature for 15 min. The DNA/TurboFect mixture dropwise was then added to the dish, and the cells were incubated at 37 °C in a humidified incubator containing 5% CO2 overnight.
as §2, with “The next day, transfected cells were trypsinized and reseeded in an opaque white 96-well half-area (Corning, 3688) or 384-well tissue culture–treated plates (Corning, 3570) at a density of 20,000 cells/well in F-12K and 10% FBS and incubated at 37 °C in a humidified incubator containing 5% CO2 overnight. On the” for “On the”

[2] = co-transfected with Gαq (Gα16), 10^-5 M compared with 10^-10 M, n = 3

Substance	IP1 response of apTKRPR-A in screening (apTKRPR-A; n = 3)	IP1 response of apTKRPR-A in screening with Gαq cotransfection (apTKRPR-A; [2])	IP1 response of apTKRPR-B in screening (apTKRPR-B; n = 3)	IP1 response of apTKRPR-B in screening with Gαq cotransfection (apTKRPR-B; [2])	IP1 response of putative apNPFFR in screening [1]	EC50 (apTKRPR-A; log10 of EC50 in M, negative, IP1 accumulation, CHO-K1, mean ± SD of at least three independent experiments (apTKRP-1 n = 9; apTKRP-2a n = 11; apTKRP-2b n = 19; analogs, apTKRP-2b-OH n = 4), read-out: apTKRPR-A log[EC50] (converted)) [nM]	EC50 (apTKRPR-B; log10 of EC50 in M, negative, IP1 accumulation, CHO-K1, mean ± SD of at least three independent experiments (apTKRP-1 n = 9; apTKRP-2a n = 11; apTKRP-2b n = 19; analogs, apTKRP-2b-OH n = 4), read-out: apTKRPR-B log[EC50] (converted)) [nM]
FMPGLESLLLAKYYQDAKW [apTKRPG-DP]	did not activate	did not activate	did not activate	did not activate	did not respond	–	–
H-QPHLGFHGSR-NH2 [apTKRP-2a]	responded	–	responded	–	did not respond	107	12.9
